{"source": "patent US20170239289A1", "about": "“TREATMENT OF INFLAMMATION, RESPIRATORY TRACT INFECTIONS AND CYSTIC FIBROSIS” (Advanced Inhalation Therapies (AIT) Ltd., priority 2014, published 2017)", "key": {"[1]": {"tested_on": "methicillin-sensitive S. aureus (MSSA)", "assay": "Example 1: microbial density in sputum (CFU) during NO inhalation", "assay_type": "in vivo, Staphylococcus aureus", "conditions": "Patient 3 (CFSCH03)", "description": "(§1) NO was administered via inhalation to nine clinically stable human subjects diagnosed with, or suffering from CF from two medical centers. Patients received three daily 30-minute treatments of 160 ppm NO with at least 3.5 hours between treatments, for 5 days per week over a two-weeks time period.\n(§2) Preliminary efficacy measures included determination of microbial density in sputum and measurements of forced exhaled volume at 1 second (FEV1). Inflammation associated with C-reactive protein (CRP) levels was assessed as a secondary outcome measure. Other inflammation biomarkers, such as interleukins, were also monitored (data not shown).\nBacterial load was measured for exemplary, non-limiting selection of species that included, P. alcaligenes, methicillin-sensitive Staphylococcus aureus (MSSA), Achromobacter spp., A. fumigates, non-mucoid P. aeruginosa and mucoid P. aeruginosa."}, "[2]": {"tested_on": "human subjects diagnosed with, or suffering from CF", "assay": "Example 1: FEV1 in CF subjects treated with 160 ppm NO", "assay_type": "in vivo", "description": "as §1, §2"}, "[3]": {"tested_on": "human subjects diagnosed with acute bronchiolitis", "assay": "Example 3: randomized bronchiolitis study, infants 2-12 months; 160 ppm NO 30 min 5x daily up to 5 days plus O2 vs O2 alone; safety and tolerability", "assay_type": "in vivo", "description": "Eligible subjects were randomized (1:1) to receive intermittent NO and standard treatment with O2 (hereafter referred to as NO treatment) or standard treatment with O2 (hereafter referred to as standard treatment) alone for a treatment period of up to 5 days. During treatment, MetHb and O2 saturation levels were continuously monitored using a dedicated monitor.\nIn addition to standard supportive O2 treatment which was initiated prior to randomization, subjects in the NO group were given five 30 minute inhalations per day of 160 ppm NO, at intervals of 3 to 4 hours, until subject improvement led to a physician decision of fit to discharge, to a maximum of 25 inhalations over 5 consecutive days. Inhalations were administered via hospital face masks (Hospiltak, Unomedical Inc).\nAll subjects in the control group were managed with standard supportive O2 treatment in the same way as the active treatment group, but without actual NO administration.\nMethemoglobin and O2 saturation levels were also continuously monitored using a dedicated monitor. In the event of MetHb>5% or O2 saturation less than 89%, treatment was temporarily discontinued, and measurement repeated 30 minutes later. If value(s) had returned to within the safety threshold, the next inhalation was started according to protocol. In any case of a second episode of MeHb greater than 5%, study treatment was to be permanently discontinued.\nPrimary Endpoints—Safety and Tolerability: • Safety: • Determine the MetHb percentage associated with inhaled NO • Determine AEs associated with inhaled NO • Tolerability: • Proportion of subjects (%) who prematurely discontinued the study or study treatment for any reason • Proportion of subjects (%) who prematurely discontinued the study treatment due to AEs"}, "[4]": {"tested_on": "human subjects diagnosed with cystic fibrosis", "assay": "Example 4: lung function indices by spirometry", "assay_type": "in vivo", "description": "(§3) In addition to their standard care, subjects were administered three 30-minute inhalations per day of 160 ppm NO (with O2/air) for 10 working days (i.e., 5 days on treatment, 2 days off treatment, 5 days on treatment, for a total of 10 treatment days and 30 inhalations).\n(§4) Secondary Endpoints—Efficacy: • Comparison of FEV1 improvement before and after NO treatment Observational Endpoints: • To determine the reduction in bacterial and fungal sputum load during each week of NO treatment compared to bacterial sputum load before NO treatment • Assess the improvement of lung function indices during and after NO intermittent inhalation treatment as determined by spirometry (i.e., FVC, FEV1, FEV1/FVC, forced expiratory flow 25% to 75% (FEF 25-75)) • Evaluate C-reactive protein (CRP) levels over time • Number of subjects with study drug related bleeding at any time point\nThe Signed rank test for two means was applied for analyzing changes from baseline in continuous parameters: • FEV1% • Specific bacterial colonization (i.e., S. aureus, P. aeruginosa)"}, "C-reactive protein (CRP)": {"tested_on": "C-reactive protein (CRP)", "assay": "Example 4: CRP levels over time", "assay_type": "in vivo, human", "conditions": "three subjects with systemic inflammation (CRP greater than 5 mg/L) on Day 1", "description": "as §3, §4"}, "[5]": {"conditions": "Follow-up 2 (2 weeks after Day 10), n=9"}}, "note": "“Also recorded” adds a separate entry of the source."}
{"smiles": "[N]=O", "note": "[NO, nitric oxide]", "values": [{"measurement": "MSSA CFU counts", "setting": "[1]", "result": "elimination"}, {"measurement": "FEV1 reduction", "setting": "[2]; one patient, returned to initial levels after 2 weeks", "result": 11, "unit": "%"}, {"measurement": "changes in FEV1 values", "setting": "[2]; two of 9 subjects", "result": "no significant changes"}, {"measurement": "Time for MetHb to approach pre-treatment levels", "setting": "[3]; after end of 30 min treatment", "result": "approximately 3 hours"}, {"measurement": "Completed entire treatment and study duration, % of subjects", "setting": "[3]; all randomized", "result": 90.5, "unit": "%"}, {"measurement": "Early discontinuation of study", "setting": "[3]; all randomized", "result": "(0.0%)"}, {"measurement": "Early discontinuation of study, withdrawal of consent", "setting": "[3]; all randomized", "result": "(0.0%)"}, {"measurement": "Early discontinuation of treatment due to AE", "setting": "[3]; all randomized", "result": "(4.8%)^(1)"}, {"measurement": "Early discontinuation of treatment due to SAE", "setting": "[3]; all randomized", "result": "(0.0%)"}, {"measurement": "Early discontinuation of treatment only", "setting": "[3]; all randomized", "result": "(9.5%)"}, {"measurement": "Early discontinuation of treatment, Physician/Investigator decision", "setting": "[3]; all randomized", "result": "(4.8%)^(3)"}, {"measurement": "Subjects that discontinued study treatment or discontinued the study", "setting": "[3]; all randomized", "result": "(9.5%)"}, {"measurement": "Completed entire treatment and study duration, % of subjects", "setting": "[3]; all randomized, listed as NO and Standard Treatment (O2)", "result": "(90.5%)"}, {"measurement": "Subjects with any MetHb measurement greater than 5%", "setting": "[3]; during the study treatment period", "result": 28.6, "unit": "%"}, {"measurement": "Serious adverse events reported by", "setting": "[3]; human, in vivo, 160 ppm", "result": 4, "unit": "subjects"}, {"measurement": "Subjects reporting at least 1 AE", "setting": "[3]; human, in vivo, 160 ppm", "result": 47.6, "unit": "%"}, {"measurement": "Deaths during the study", "setting": "[3]; in vivo", "result": "no deaths"}, {"measurement": "maximum MetHb", "setting": "[3]; one subject (Subject 44)", "result": 5.6, "unit": "%"}, {"measurement": "Cumulative effect on MetHb levels", "setting": "[3]; over the study treatment period", "result": "no “cumulative” effect; also recorded: no cumulative effect"}, {"measurement": "FEF 25-75% Absolute, Mean", "setting": "[4]; Day 1, n=9", "result": 30.000, "unit": "%"}, {"measurement": "FEF 25-75% Absolute, Median", "setting": "[4]; Day 1, n=9", "result": 27.000, "unit": "%"}, {"measurement": "FEF 25-75 Absolute, Mean", "setting": "[4]; Day 1, n=9", "result": 1.151, "unit": "L/s"}, {"measurement": "FEF 25-75 Absolute, Median", "setting": "[4]; Day 1, n=9", "result": 1.090, "unit": "L/s"}, {"measurement": "FEV1/FVC, Mean", "setting": "[4]; Day 1, n=9", "result": 68.778, "unit": "%"}, {"measurement": "FEV1/FVC, Median", "setting": "[4]; Day 1, n=9", "result": 69.000, "unit": "%"}, {"measurement": "FEV1 Absolute, Mean", "setting": "[4]; Day 1, n=9", "result": 1.871, "unit": "L"}, {"measurement": "FEV1 Absolute, Median", "setting": "[4]; Day 1, n=9", "result": 1.700, "unit": "L"}, {"measurement": "FEV1 Predicted, Mean", "setting": "[4]; Day 1, n=9", "result": 62.222, "unit": "%"}, {"measurement": "FEV1 Predicted, Median", "setting": "[4]; Day 1, n=9", "result": 64.000, "unit": "%"}, {"measurement": "FVC Absolute, Mean", "setting": "[4]; Day 1, n=9", "result": 2.756, "unit": "L"}, {"measurement": "FVC Absolute, Median", "setting": "[4]; Day 1, n=9", "result": 2.360, "unit": "L"}, {"measurement": "FVC Predicted, Mean", "setting": "[4]; Day 1, n=9", "result": 79.889, "unit": "%"}, {"measurement": "FVC Predicted, Median", "setting": "[4]; Day 1, n=9", "result": 90.000, "unit": "%"}, {"measurement": "FEF 25-75% Absolute, Mean", "setting": "[4]; Day 10, n=9", "result": 28.111, "unit": "%"}, {"measurement": "FEF 25-75% Absolute, Median", "setting": "[4]; Day 10, n=9", "result": 22.000, "unit": "%"}, {"measurement": "FEF 25-75 Absolute, Mean", "setting": "[4]; Day 10, n=9", "result": 1.090, "unit": "L/s"}, {"measurement": "FEF 25-75 Absolute, Median", "setting": "[4]; Day 10, n=9", "result": 0.880, "unit": "L/s"}, {"measurement": "FEV1/FVC, Mean", "setting": "[4]; Day 10, n=9", "result": 65.111, "unit": "%"}, {"measurement": "FEV1/FVC, Median", "setting": "[4]; Day 10, n=9", "result": 66.000, "unit": "%"}, {"measurement": "FEV1 Absolute, Mean", "setting": "[4]; Day 10, n=9", "result": 1.833, "unit": "L"}, {"measurement": "FEV1 Absolute, Median", "setting": "[4]; Day 10, n=9", "result": 1.610, "unit": "L"}, {"measurement": "FEV1 Predicted, Mean", "setting": "[4]; Day 10, n=9", "result": 60.444, "unit": "%"}, {"measurement": "FEV1 Predicted, Median", "setting": "[4]; Day 10, n=9", "result": 59.000, "unit": "%"}, {"measurement": "FVC Absolute, Mean", "setting": "[4]; Day 10, n=9", "result": 2.759, "unit": "L"}, {"measurement": "FVC Absolute, Median", "setting": "[4]; Day 10, n=9", "result": 2.340, "unit": "L"}, {"measurement": "FVC Predicted, Mean", "setting": "[4]; Day 10, n=9", "result": 79.556, "unit": "%"}, {"measurement": "FVC Predicted, Median", "setting": "[4]; Day 10, n=9", "result": 84.000, "unit": "%"}, {"measurement": "FEF 25-75% Absolute, Mean", "setting": "[4]; [5]", "result": 29.667, "unit": "%"}, {"measurement": "FEF 25-75% Absolute, Median", "setting": "[4]; [5]", "result": 23.000, "unit": "%"}, {"measurement": "FEF 25-75 Absolute, Mean", "setting": "[4]; [5]", "result": 1.118, "unit": "L/s"}, {"measurement": "FEF 25-75 Absolute, Median", "setting": "[4]; [5]", "result": 0.910, "unit": "L/s"}, {"measurement": "FEV1/FVC, Mean", "setting": "[4]; [5]", "result": 66.000, "unit": "%"}, {"measurement": "FEV1/FVC, Median", "setting": "[4]; [5]", "result": 65.000, "unit": "%"}, {"measurement": "FEV1 Absolute, Mean", "setting": "[4]; [5]", "result": 1.852, "unit": "L"}, {"measurement": "FEV1 Absolute, Median", "setting": "[4]; [5]", "result": 1.630, "unit": "L"}, {"measurement": "FEV1 Predicted, Mean", "setting": "[4]; [5]", "result": 62.889, "unit": "%"}, {"measurement": "FEV1 Predicted, Median", "setting": "[4]; [5]", "result": 60.000, "unit": "%"}, {"measurement": "FVC Absolute, Mean", "setting": "[4]; [5]", "result": 2.786, "unit": "L"}, {"measurement": "FVC Absolute, Median", "setting": "[4]; [5]", "result": 2.390, "unit": "L"}, {"measurement": "FVC Predicted, Mean", "setting": "[4]; [5]", "result": 81.889, "unit": "%"}, {"measurement": "FVC Predicted, Median", "setting": "[4]; [5]", "result": 85.000, "unit": "%"}, {"measurement": "mean (SD) FEV1 change", "setting": "[4]; from Day 1 to Day 10, N=9, p=0.992", "result": "−0.11", "unit": "%"}, {"measurement": "Lung function indices over time", "setting": "[4]; throughout the study", "result": "no clinically significant changes"}, {"measurement": "CRP levels from Day 1 to Day 10", "setting": "C-reactive protein (CRP)", "result": "decreased"}]}
